By Ki is commonly meant the equilibrium dissociation constant of an inhibitor or competing ligand from its target. Low readings indicate a stronger hold on the target, high ones a looser hold on the target.

This passage reports Ki results from patent US20120172397A1, “HEXAHYDROCYCLOPENTA[f]INDAZOLE 5-YL ETHANOLS AND DERIVATIVES THEREOF AS SELECTIVE GLUCOCORTICOID RECEPTOR MODULATORS” (MERCK SHARP & DOHME CORP., priority 2009, published 2012).

The assay addresses T1, glucocorticoid receptor (GR) (Homo sapiens, UniProt P04150).
T1 construct: Preparation of HeLa Cell Lysate; endogenous in cells; host or cells: HeLa (ATCC) cell lysate supernatant
T1 sequence (P04150 1-777): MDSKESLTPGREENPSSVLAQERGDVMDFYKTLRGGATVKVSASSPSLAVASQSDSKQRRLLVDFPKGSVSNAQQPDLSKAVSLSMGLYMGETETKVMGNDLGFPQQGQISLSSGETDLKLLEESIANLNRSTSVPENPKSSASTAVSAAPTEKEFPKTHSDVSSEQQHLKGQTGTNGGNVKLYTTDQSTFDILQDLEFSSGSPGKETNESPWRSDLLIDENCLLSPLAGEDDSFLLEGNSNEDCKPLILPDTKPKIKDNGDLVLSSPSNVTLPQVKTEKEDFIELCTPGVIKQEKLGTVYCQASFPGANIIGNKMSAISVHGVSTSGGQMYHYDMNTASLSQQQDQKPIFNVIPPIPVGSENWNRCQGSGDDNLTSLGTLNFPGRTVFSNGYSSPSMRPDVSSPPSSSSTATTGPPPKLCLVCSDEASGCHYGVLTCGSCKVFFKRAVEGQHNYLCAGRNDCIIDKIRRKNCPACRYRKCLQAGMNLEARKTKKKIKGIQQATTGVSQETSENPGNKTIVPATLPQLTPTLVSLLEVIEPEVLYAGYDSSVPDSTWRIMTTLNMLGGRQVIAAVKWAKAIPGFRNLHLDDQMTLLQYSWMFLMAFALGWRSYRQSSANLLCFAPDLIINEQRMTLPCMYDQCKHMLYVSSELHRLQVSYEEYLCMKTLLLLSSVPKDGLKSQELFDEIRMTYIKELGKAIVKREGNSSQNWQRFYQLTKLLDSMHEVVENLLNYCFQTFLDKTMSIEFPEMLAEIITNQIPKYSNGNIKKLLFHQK
Description: GR Ligand Binding Assay (BIND), 3H-dexamethasone displacement in HeLa cell lysate. Particulars: 3H-DEX trace, 4° C. overnight. As for the experimental part:
Binding Buffer: TEGM (10 mM Tris-HCl, 1 mM EDTA, 10% glycerol, 1 rnM beta-mecaptoethanol, 10 mM Sodium Molybdate, pH 7.2)
50% HAP Slurry: Calbiochem Hydroxylapatite, Fast Flow, in 10 mM Iris, pH 8.0 and 1 mM EDTA.
Wash Buffer: 40 mM Tris, pH7.5, 100 mM KCl, 1 mM EDTA and 1 mM EGTA. 95% EtOH
Dexmethasone-methyl-^3H, (DEX*); (Amersham cat# TRK645)
Dexamethasone(DEX) (Sigma, cat# D1756):
Cells (Hall R. E., et al., European Journal of Cancer, 30A: 484-490 (1994)) HeLa (ATCC) cultured in RPMI 1640 (Gibco 11835-055) containing 20 mM Hepes, 4 mM L-glu, 10 μg/ml of human insulin (Sigma, I-0259), 10% FBS and 20 μg/ml of Gentamicin (Gibco#15710-072) are rinsed twice in PBS. Phenol red-free Trypsin-EDTA is diluted in the same PBS 1:10. The cell layers are rinsed with 1× Trypsin, extra Trypsin is poured out, and the cell layers are incubated at 37° C. for ˜2 min. The flask is tapped and checked for signs of cell detachment. Once the cells begin to slide off the flask, the complete media is added. The cells are counted at this point, then diluted to the appropriate concentration and split into flasks or dishes for further culturing (Usually 1:3 to 1:6 dilution).
When the cells are 70 to 85% confluent, they are detached as described above, and collected by centrifuging at 1000 g for 10 minutes at 4° C. The cell pellet is washed twice with TEGM (10 mM Tris-HCl, 1 mM EDTA, 10% glycerol, 1 mM beta-mercaptoethanol, 10 mM Sodium Molybdate, pH 7.2). After the final wash, the cells are resuspended in TEGM at a concentration of 10^7 cells/mL. The cell suspension is snap frozen in liquid nitrogen or ethanol/dry ice bath and transferred to −80° C. freezer on dry ice. Before setting up the binding assay, the frozen samples are left on ice-water to just thaw (˜1 hr). Then the samples are centrifuged at 12,500 g to 20,000 g for 30 min at 4° C. The supernatant is used to set-up assay right away. If using 50 μL of supernatant, the test compound can be prepared in 50 μL of the TEGM buffer.
1× TEGM buffer is prepared, and the isotope-containing assay mixture is prepared in the following order: EtOH (2% final concentration in reaction), ^3H-DEX (Amersham Biosciences) and 1× TEGM. [e.g. For 100 samples, 200 μL (100×2) of EtOH+4.25 μL of 1:10 ^3H-Dex stock+2300 μL (100×23) 1× TEGM]. The compound is serially diluted, e.g., if starting final conc. is 1 μM, and the compound is in 25 μL of solution, for duplicate samples, 75 μL of 4×1 μM solution is made and 3 μL of 100 μM is added to 72 μL of buffer, and 1:5 serial dilution.
25 μL of ^3H-DEX (6 nM) trace and 25 μL compound solution are first mixed together, followed by addition of 50 μL receptor solution. The reaction is gently mixed, spun briefly at about 200 rpm and incubated at 4° C. overnight. 100 μL of 50% HAP slurry is prepared and added to the incubated reaction which is then vortexed and incubated on ice for 5 to 10 minutes. The reaction mixture is vortexed twice more to resuspend HAP while incubating reaction. The samples in 96-well format are then washed in wash buffer using The FilterMate™ Universal Harvester plate washer (Packard). The washing process transfers HAP pellet containing ligand-bound expressed receptor to Unifilter-96 GF/B filter plate (Packard). The HAP pellet on the filter plate is incubated with 50 μL of MICROSCINT (Packard) scintillint for 30 minutes before being counted on the TopCount microscintillation counter (Packard). IC50s are calculated using DEX as a reference.

As for `C[C@]12Cc3cnn(-c4cccnc4)c3C=C1CC[C@@H]2CC(O)c1ccccc1` (single isomer, unassigned) [Example 1a], the Ki is 3.5 nM.

Take `C[C@]12Cc3cnn(-c4cccnc4)c3C=C1CC[C@@H]2CC(O)c1ccccc1` (single isomer, unassigned) [Example 1b]: the Ki amounted to 8.8 nM.

`COc1ccccc1C(O)C[C@H]1CCC2=Cc3c(cnn3-c3cccnc3)C[C@@]21C` (single isomer, unassigned) [Example 2a]: the Ki was 7.3 nM.

As for `COc1ccccc1C(O)C[C@H]1CCC2=Cc3c(cnn3-c3cccnc3)C[C@@]21C` (single isomer, unassigned) [Example 2b], the Ki came out at 9 nM.

`COc1cccc(C(O)C[C@H]2CCC3=Cc4c(cnn4-c4cccnc4)C[C@@]32C)c1` (single isomer, unassigned) [Example 4a]: the Ki was 3.6 nM.

Regarding `COc1cccc(C(O)C[C@H]2CCC3=Cc4c(cnn4-c4cccnc4)C[C@@]32C)c1` (single isomer, unassigned) [Example 4b], the Ki is 8.4 nM.

Regarding `C[C@]12Cc3cnn(-c4cccnc4)c3C=C1CC[C@@H]2CC(O)c1ccccn1` (single isomer, unassigned) [Example 6a], the Ki stood at 346 nM.

For the compound `C[C@]12Cc3cnn(-c4cccnc4)c3C=C1CC[C@@H]2CC(O)c1ccccn1` (single isomer, unassigned) [Example 6b], the affinity, expressed as Ki, was 151 nM.

Compound `CC(O)(C[C@H]1CCC2=Cc3c(cnn3-c3cccnc3)C[C@@]21C)c1ccccc1` (single isomer, unassigned) [Example 7a] had a Ki of 2.3 nM.

In the case of `CC(O)(C[C@H]1CCC2=Cc3c(cnn3-c3cccnc3)C[C@@]21C)c1ccccc1` (single isomer, unassigned) [Example 7b], the Ki was 4.8 nM.

Compound `COc1ccc(C(O)C[C@H]2CCC3=Cc4c(cnn4-c4cccnc4)C[C@@]32C)cn1` (stereo partly drawn) [Example 3, 1-(6-methoxypyridin-3-yl)-2-[(4αR,5R)-4α-methyl-1-(pyridin-3-yl)-1,4,4α,5,6,7-hexahydrocyclopenta[f]indazol-5-yl] ethanol] came in with a Ki of 8.5 nM.

With `COc1ccc(C(O)C[C@H]2CCC3=Cc4c(cnn4-c4cccnc4)C[C@@]32C)cc1` (stereo partly drawn) [Example 5, 1-(4-methoxyphenyl)-2-[(4αR,5R)-4α-methyl-1-(pyridin-3-yl)-1,4,4α,5,6,7-hexahydrocyclopenta[f]indazol-5-yl] ethanol], the Ki came out at 0.9 nM.
